Patent publication US5236955A, “Anti-fungal agent” (Washington University, priority 1992, dated 1993)

What was measured:
C. albicans lipids = test: Incorporation of label into total cellular lipids; format: cell-based; conditions: 1 hr, 30° C.
Experimental: (§1) Cells were incubated with the indicated [^3 H]fatty acid (specific activity=30 Ci/mmol, 100 μCi/ml media) for 1 h at 30° C. After the organisms were pelleted and washed, spheroplasts were prepared and total lipids extracted. Tests were done on two separate occasions. The incorporation of label from each of the oxatetradecanoic acid analogs and from palmitate into total cellular lipids is expressed as a percentage of the total amount of label incorporated from [^3 H]myristate.
(§2) Analysis of the incorporation of exogenous fatty acids into cellular phospholipids and neutral lipids--Five ml cultures were labeled with each of the 5 tritiated fatty acids or with [9,10(n)^3 H]palmitate (30 Ci/mmol) at 30° C. for 60 min (S. cerevisiae and C. albicans) or for 75 min (C. neoformans) as described in the preceding paragraph. S. cerevisiae and C. albicans cells were then pelleted by centrifugation at 4000×g for 5 min. and washed first in water followed by a wash with 1M sorbitol. […]
(§3) Dried lipids were resuspended in 500 μl CHCl3 :MeOH(1:1). A 2 μl aliquot was counted in a scintillation counter to determine the extent of incorporation of label into cellular lipids. […]

C. neoformans lipids = test: Incorporation of label into total cellular lipids; format: cell-based; conditions: 1 hr, 30° C.
Experimental: as §1, §2, §3

CCCCCCCCCCOCCC(=O)O [O4, 4-oxatetradecanoic acid]
label incorporated into C. albicans lipids, of the amount observed with [3H]myristate (C. albicans lipids): 27-28% | label incorporated into C. neoformans lipids, of the amount observed with [3H]myristate (C. neoformans lipids): 27-28%
